The results in this text go back to patent US20260297080A1, “BICYCLIC COMPOUNDS AS CDK INHIBITORS” (BeOne Medicines I GmbH, priority 2022, published 2026).

For experiment [1], the target named is CDK2/Cyclin E1 (Homo sapiens, UniProt P24941). As to the kind of experiment: CDK2/Cyclin E1 Biochemical Assay (TR-FRET), 0.060 mM ATP. The settings on record: 0.15 μM Rb (Ser780)-biotin substrate, pH7.0, 60 min preincubation, 120 min reaction, room temperature. Put shortly: (§1)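 Kinase preincubated with compound (0–10 μM) 60 min at room temperature, then reaction started with ATP and 0.15 μM Rb (Ser780)-biotin peptide and run 120 min in HEPES pH 7.0 buffer with 50 mM MgCl2. Phospho-Rb detected by Eu-cryptate anti-pRb(Ser780)/streptavidin-XL665 TR-FRET (665/620 nm ratio); IC50 from four-parameter logistic fit.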

The target in experiment [2] is CDK1/Cyclin B1 (Homo sapiens, UniProt P06493). As to the kind of experiment: CDK1/Cyclin B1 Biochemical Assay (TR-FRET), 0.015 mM ATP. The settings on record: 0.15 μM Rb (Ser780)-biotin substrate, pH7.0, 60 min preincubation, 120 min reaction, room temperature. The gist of the method: as §1
On the technique in general: In TR-FRET formats the signal depends on donor and acceptor labels being close together.

CDK1/Cyclin B1, sequence (P06493 whole entry): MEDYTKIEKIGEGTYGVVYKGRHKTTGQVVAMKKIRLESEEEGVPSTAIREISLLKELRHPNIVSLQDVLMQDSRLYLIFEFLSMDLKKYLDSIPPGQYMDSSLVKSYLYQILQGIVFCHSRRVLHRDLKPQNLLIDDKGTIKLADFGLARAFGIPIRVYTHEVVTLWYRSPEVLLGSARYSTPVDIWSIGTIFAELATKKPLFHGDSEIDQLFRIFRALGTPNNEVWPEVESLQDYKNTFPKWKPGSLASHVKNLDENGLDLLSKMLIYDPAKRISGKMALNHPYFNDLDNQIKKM
CDK1/Cyclin B1, sequence (P14635 whole entry partner): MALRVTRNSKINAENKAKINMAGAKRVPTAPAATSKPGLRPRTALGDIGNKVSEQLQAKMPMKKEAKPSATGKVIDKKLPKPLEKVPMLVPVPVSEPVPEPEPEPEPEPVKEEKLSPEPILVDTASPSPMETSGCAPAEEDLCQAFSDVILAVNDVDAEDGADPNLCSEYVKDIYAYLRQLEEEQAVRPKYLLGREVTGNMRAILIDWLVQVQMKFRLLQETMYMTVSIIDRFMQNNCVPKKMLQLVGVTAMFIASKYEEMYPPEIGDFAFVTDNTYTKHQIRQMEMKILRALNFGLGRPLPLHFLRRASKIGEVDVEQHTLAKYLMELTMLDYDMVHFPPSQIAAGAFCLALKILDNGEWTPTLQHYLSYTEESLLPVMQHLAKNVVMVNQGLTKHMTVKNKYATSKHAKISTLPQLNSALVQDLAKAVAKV

Consider `CC1(NC(=O)O[C@H]2CC[C@@H](c3cc(Nc4cc5c(cc4F)NS(=O)(=O)C5)n[nH]3)C2)CC1` (relative stereo) [Example 295, cis-3-(3-((6-fluoro-2,2-dioxido-1,3-dihydrobenzo[c]isothiazol-5-yl)amino)-1H-pyrazol-5-yl)cyclopentyl(1-methylcyclopropyl)carbamate], for which the IC50 in experiment [1] amounted to 23 nM; in experiment [2], 426 nM.
For `CCCNC(=O)O[C@H]1CC[C@@H](c2cc(Nc3cc4c(cc3F)N(CCO)S(=O)(=O)C4)n[nH]2)C1` (relative stereo) [Example 297, cis-3-(3-((6-fluoro-1-(2-hydroxyethyl)-2,2-dioxido-1,3-dihydrobenzo[c]isothiazol-5-yl)amino)-1H-pyrazol-5-yl)cyclopentyl propylcarbamate] the same measures were 38 nM and 607 nM.
The corresponding values for `CC(C)CNC(=O)O[C@H]1CC[C@@H](c2cc(Nc3cc4c(cc3F)N(CCO)S(=O)(=O)C4)n[nH]2)C1` (relative stereo) [Example 298, cis-3-(3-((6-fluoro-1-(2-hydroxyethyl)-2,2-dioxido-1,3-dihydrobenzo[c]isothiazol-5-yl)amino)-1H-pyrazol-5-yl)cyclopentyl isobutylcarbamate] are 4.7 nM and 166 nM.
Regarding `CC1(NC(=O)O[C@H]2CC[C@@H](c3cc(Nc4cc5c(cc4F)N(CCO)S(=O)(=O)C5)n[nH]3)C2)CC1` (relative stereo) [Example 299, cis-3-(3-((6-fluoro-1-(2-hydroxyethyl)-2,2-dioxido-1,3-dihydrobenzo[c]isothiazol-5-yl)amino)-1H-pyrazol-5-yl)cyclopentyl(1-methylcyclopropyl)carbamate], the values for the IC50 in experiment [1] and in experiment [2] were 9 nM and 239 nM, respectively.
On to `CC(C)NC(=O)O[C@H]1CC[C@@H](c2cc(Nc3cc4c(cc3F)N(C)S(=O)(=O)C4)n[nH]2)C1` (relative stereo) [Example 300, cis-3-(3-((6-fluoro-1-methyl-2,2-dioxido-1,3-dihydrobenzo[c]isothiazol-5-yl)amino)-1H-pyrazol-5-yl)cyclopentyl isopropylcarbamate], for which the values for the IC50 in experiment [1] and in experiment [2] were 36 nM and 513 nM, respectively.
Take `CC(C)NC(=O)O[C@H]1CC[C@@H](c2cc(Nc3cc4c(cc3F)N(C3COC3)S(=O)(=O)C4)n[nH]2)C1` (relative stereo) [Example 301, cis-3-(3-((6-fluoro-1-(oxetan-3-yl)-2,2-dioxido-1,3-dihydrobenzo[c]isothiazol-5-yl)amino)-1H-pyrazol-5-yl)cyclopentyl isopropylcarbamate]: the results for the IC50 in experiment [1] and in experiment [2] were 12 nM and 404 nM, respectively.
For the compound `CC(C)NC(=O)O[C@H]1CC[C@@H](c2cc(Nc3cc4c(cc3F)N(C3CC3)S(=O)(=O)C4)n[nH]2)C1` (relative stereo) [Example 302, cis-3-(3-((1-cyclopropyl-6-fluoro-2,2-dioxido-1,3-dihydrobenzo[c]isothiazol-5-yl)amino)-1H-pyrazol-5-yl)cyclopentyl isopropylcarbamate], the half-maximal inhibitory concentration (IC50) in experiment [1] amounted to 21 nM; in experiment [2], 686 nM.
For `CC(C)NC(=O)O[C@H]1CC[C@@H](c2cc(Nc3ccc4c(c3)NS(=O)(=O)C4(C)C)n[nH]2)C1` (relative stereo) [Example 304, cis-3-(3-((3,3-dimethyl-2,2-dioxido-1,3-dihydrobenzo[c]isothiazol-6-yl)amino)-1H-pyrazol-5-yl)cyclopentyl isopropylcarbamate] the same measures were 29 nM and 251 nM.
Take `CCCNC(=O)O[C@H]1CC[C@@H](c2cc(Nc3ccc4c(c3)NS(=O)(=O)C4)n[nH]2)C1` (relative stereo) [Example 305, cis-3-(3-((2,2-dioxido-1,3-dihydrobenzo[c]isothiazol-6-yl)amino)-1H-pyrazol-5-yl)cyclopentyl propylcarbamate]: the IC50 was 6.5 nM in experiment [1] and 58 nM in experiment [2].
The corresponding values for `CC[C@H](C)NC(=O)O[C@H]1CC[C@@H](c2cc(Nc3ccc4c(c3)NS(=O)(=O)C4)n[nH]2)C1` (relative stereo) [Example 306, cis-3-(3-((2,2-dioxido-1,3-dihydrobenzo[c]isothiazol-6-yl)amino)-1H-pyrazol-5-yl)cyclopentyl((S)-sec-butyl)carbamate] are 2.8 nM and 27 nM.
On to `CC1(NC(=O)O[C@H]2CC[C@@H](c3cc(Nc4ccc5c(c4)NS(=O)(=O)C5)n[nH]3)C2)CC1` (relative stereo) [Example 307, cis-3-(3-((2,2-dioxido-1,3-dihydrobenzo[c]isothiazol-6-yl)amino)-1H-pyrazol-5-yl)cyclopentyl(1-methylcyclopropyl)carbamate], for which the figures for the IC50 in experiment [1] and in experiment [2] were 2.5 nM and 18 nM, respectively.
For `CC(C)NC(=O)O[C@H]1CC[C@@H](c2cc(Nc3ccc4c(c3)N(C)S(=O)(=O)C4)n[nH]2)C1` (relative stereo) [Example 308, cis-3-(3-((1-methyl-2,2-dioxido-1,3-dihydrobenzo[c]isothiazol-6-yl)amino)-1H-pyrazol-5-yl)cyclopentyl isopropylcarbamate], the IC50 in experiment [1] turned out to be 2.2 nM; in experiment [2], 26 nM.
Turning to `CC(C)NC(=O)O[C@H]1CC[C@@H](c2cc(Nc3ccc4c(c3)N(CCO)S(=O)(=O)C4)n[nH]2)C1` (relative stereo) [Example 309, cis-3-(3-((1-(2-hydroxyethyl)-2,2-dioxido-1,3-dihydrobenzo[c]isothiazol-6-yl)amino)-1H-pyrazol-5-yl)cyclopentyl isopropylcarbamate], the half-inhibitory concentration (IC50) turned out to be 1.4 nM in experiment [1] and 6.1 nM in experiment [2].
As to `CC(C)NC(=O)O[C@H]1CC[C@@H](c2cc(Nc3cc4c(cc3F)CS(=O)(=O)N4)n[nH]2)C1` (relative stereo) [Example 310, cis-3-(3-((5-fluoro-2,2-dioxido-1,3-dihydrobenzo[c]isothiazol-6-yl)amino)-1H-pyrazol-5-yl)cyclopentyl isopropylcarbamate], the IC50 in experiment [1] amounted to 81 nM; in experiment [2], 2200 nM.
Take `CC(C)NC(=O)O[C@H]1CC[C@@H](c2cc(Nc3cc(F)c4c(c3)NS(=O)(=O)C4)n[nH]2)C1` (relative stereo) [Example 311, cis-3-(3-((4-fluoro-2,2-dioxido-1,3-dihydrobenzo[c]isothiazol-6-yl)amino)-1H-pyrazol-5-yl)cyclopentyl isopropylcarbamate]: the 50% inhibitory concentration (IC50) in experiment [1] stood at 6 nM; in experiment [2], 158 nM.
The corresponding values for `CC(C)NC(=O)O[C@H]1CC[C@@H](c2cc(Nc3ccc4c(c3F)NS(=O)(=O)C4)n[nH]2)C1` (relative stereo) [Example 312, cis-3-(3-((7-fluoro-2,2-dioxido-1,3-dihydrobenzo[c]isothiazol-6-yl)amino)-1H-pyrazol-5-yl)cyclopentyl isopropylcarbamate] are 4.3 nM and 147 nM.
The corresponding values for `CC(C)NC(=O)O[C@H]1CC[C@@H](c2cc(Nc3ccc4c(c3F)S(=O)(=O)CC4)n[nH]2)C1` (relative stereo) [Example 314, cis-3-(3-((7-fluoro-1,1-dioxido-2,3-dihydrobenzo[b]thiophen-6-yl)amino)-1H-pyrazol-5-yl)cyclopentyl isopropylcarbamate] are 1.6 nM and 44 nM.
As for `CC(C)NC(=O)O[C@@H]1CC[C@H](c2cc(Nc3ccc4c(c3)S(=O)(=O)CN4C(=O)OC(C)(C)C)n[nH]2)C1` (relative stereo) [Example 318, cis-tert-butyl 6-((5-(3-((isopropylcarbamoyl)oxy)cyclopentyl)-1H-pyrazol-3-yl)amino)benzo[d]thiazole-3 (2H)-carboxylate 1,1-dioxide], the IC50 in experiment [1] was 257 nM; in experiment [2] it was 1750 nM.
The corresponding values for `CC(C)NC(=O)O[C@@H]1CC[C@H](c2cc(Nc3ccc4c(c3)N(C(=O)OC(C)(C)C)CS4(=O)=O)n[nH]2)C1` (relative stereo) [Example 319, cis-tert-butyl 5-((5-(3-((isopropylcarbamoyl)oxy)cyclopentyl)-1H-pyrazol-3-yl)amino)benzo[d]thiazole-3 (2H)-carboxylate 1,1-dioxide] are 85 nM and 1750 nM.
Take `CC(C)NC(=O)O[C@H]1CC[C@@H](c2cc(Nc3ccc4c(c3)NS(=O)(=O)N4)n[nH]2)C1` (relative stereo) [Example 320, cis-3-(3-((2,2-dioxido-1,3-dihydrobenzo[c][1,2,5]thiadiazol-5-yl)amino)-1H-pyrazol-5-yl)cyclopentyl isopropylcarbamate]: the values for the IC50 in experiment [1] and in experiment [2] were 134 nM and 1760 nM, respectively.
Turning to `C[C@@H](CO)NC(=O)O[C@H]1CC[C@@H](c2cc(Nc3ccc4c(c3)CS(=O)(=O)N4C)n[nH]2)C1` (relative stereo) [Example 324, cis-3-(3-((1-methyl-2,2-dioxido-1,3-dihydrobenzo[c]isothiazol-5-yl)amino)-1H-pyrazol-5-yl)cyclopentyl((S)-1-hydroxypropan-2-yl)carbamate], the IC50 was determined as 3.3 nM in experiment [1] and 83 nM in experiment [2].
On to `CC(C)NC(=O)O[C@H]1CC[C@@H](c2cc(Nc3ccc4c(c3F)CN(CC3CN(S(C)(=O)=O)C3)S4(=O)=O)n[nH]2)C1` (relative stereo) [Example 326, cis-3-(3-((4-fluoro-2-((1-(methylsulfonyl)azetidin-3-yl)methyl)-1,1-dioxido-2,3-dihydrobenzo[d]isothiazol-5-yl)amino)-1H-pyrazol-5-yl)cyclopentyl isopropylcarbamate], for which the IC50 in experiment [1] worked out at 6.6 nM; in experiment [2], 290 nM.

As a reminder, the IC50 is the concentration that inhibits the measured activity by half.
